Measured values from patent publication US9532997B2, “Compositions and methods for promoting intestinal stem cell function” (Whitehead Institute for Biomedical Research, priority 2012, dated 2017).
Entries after “also recorded” stand apart in the source; their conditions may differ.

Legend:
[1] = test system: AL and CR-derived crypts; assay: Crypt culture organoid formation with agent added to culture media; assay type: cell-based, mice; conditions: for organoid forming capacity of AL and CR-derived crypts: 100 nM, FIG. 4h
Experimental: Small intestines were removed and the fat/mesentery was dissected away. The intestinal lumen was washed with ice cold PBS (Mg—/Ca—) using a 18 G feeding needle (Roboz FN-7905) until the intestines appeared white/pink. They were then opened longitudinally. The mucous was removed by gently rubbing the intestine between fingers in cold PBS. The intestines were cut into 3 to 5 mm fragments and placed into 50 ml conical tubes that were fill with ice cold 30 ml of PBS (Mg—/Ca—)/EDTA (10 mM). The samples were incubated and shook intermittently on ice for 30 minutes continuously discarding and replacing (at least 3 times) the supernatant. The fragments were then continually resuspended with ice cold 30 ml PBS (Mg—/Ca—)/EDTA (10 mM) and intermittently shook on ice for 10 minutes, discarding the supernatant again for 3 times. The fragments were resuspended again with ice cold 30 ml PBS (Mg—/Ca—)/EDTA (10 mM) and incubated and intermittently shook while waiting on ice for 20 to 40 minutes. The samples were then triturated with a 10 ml pipette 1 to 2 times, and the contents were filtered twice through a 70-μm mesh (BD Falcon) into a 50 ml conical tube to remove villous material and tissue fragments. At this point the suspension was mainly composed of crypts. Crypts were removed from this step for crypt culture experiments and embedded in matrigel with crypt culture media. For ISC isolation, the crypt suspensions were centrifuged for 5 minutes at 250 g (4 C or room temperature). The pellets were gently resuspended in 1.0 ml of undiluted TrypLE Express (Invitrogen)+120 μl of DNase I (10 U/μl, Roche) and transferred to 15 ml conical tubes. The samples were incubated in a 32° C. water bath for 1.25 to 2 minutes, were not titurated, and were then placed on ice. 12 ml of cold SMEM was added to each sample and were gently triturated twice. […]
Isolated crypts were counted and embedded in matrigel (BD Bioscience 356231 growth factor reduced) that contains 1 μM Jagged (Ana-Spec) at 5-10 crypts/μl and cultured in a modified form of medium as described in^3. […]

[2] = molecular target: T1, mTORC1 (Mus musculus, UniProt P26883+Q9JLN9); assay: Phospho-S6 (P-S6) immunostain as mTORC1 reporter in intestine / sorted Paneth cells; assay type: in vivo, mice
T1 construct: from tissue; host or cells: mouse small intestine sections, isolated crypts and sorted Paneth cells
Text: Mice were housed in the Unit for Laboratory Animal Medicine at the Whitehead Institute for Biomedical Research. Lgr5-EGFP-IRES-CreERT2 mice (Strain name: B6.129P2-Lgr5tm1(cre/ERT2)Cle/J, Stock Number: 008875) were purchased from Jackson Laboratories. UbiquitinC-CreERT2 mice were obtained from the Jackson Laboratory (Strain Name: B6; 129S-Tg(UBC-cre/ERT2)1Ejb/J, Stock Number: 007001). Rictor floxed mice were generated as described in^27 and backcrossed to C57BL/6 for at least 6 generations. TSC1^loxp/loxp mice were the generous gift of D. Kwiatkowski (Harvard Medical School) and backcrossed to C57BL/6 for at least 6 generations. Rosa26-CreERT2 mice (Rosa26 or R26) were obtained from the Jackson Laboratory (Strain 15 Name: B6.129-Gt(ROSA)26Sor^iml(cre/ERT2)Tyj/J, Stock Number 008463). CR was achieved by providing individual or paired mice a daily portion of a chow diet fortified with vitamins and minerals amounting to 60% of the daily food intake of their ad libitum counterparts^20. All adult mice used in CR experiments were between the ages of 10 to 24 weeks and were sacrificed prior to their daily feeding. Rictor or TSC1 was excised by treatment with tamoxifen suspended in corn or sunflower seed oil (Spectrum) at a concentration of 10 mg/mL, and 200 μl per 25 g of body weight was injected intraperitoneally into mice once daily for 5-7 days. […] Mice were allowed to recover for at least 7 days after the last tamoxifen injection prior to any experiments. In vivo fate mapping in Lgr5-EGFP-IRES-reERT2; Rosa26loxpstoploxp-LacZ compound mice was done with a single injection of tamoxifen given at 200 μl per 25 g. As described previously^28, Rapamycin (LC Laboratories) was administered by intraperitoneal injection for 7 to 28 consecutive doses at 4 mg/kg. It was reconstituted in absolute ethanol at 10 mg/ml and diluted in 5% Tween-80 (Sigma) and 5% PEG-400 (Hampton Research) before injection. The final volume of all injections was 200 μl. Regular insulin (Lilly) was administered at 0.75 U/kg diluted in PBS 20 minutes prior to sacrificing fasted mice. […]

[3] = molecular target: T2, Bst-1 (Mus musculus, UniProt Q64277); assay: Bst-1 siRNA knock-down in CR-derived crypts, organoid formation; assay type: cell-based, mice; conditions: cADPR added to siRNA-treated crypts
T2 construct: endogenous in cells; host or cells: primary small-intestinal crypts from calorie-restricted mice, cultured in matrigel
T2 sequence (Q64277 25-286): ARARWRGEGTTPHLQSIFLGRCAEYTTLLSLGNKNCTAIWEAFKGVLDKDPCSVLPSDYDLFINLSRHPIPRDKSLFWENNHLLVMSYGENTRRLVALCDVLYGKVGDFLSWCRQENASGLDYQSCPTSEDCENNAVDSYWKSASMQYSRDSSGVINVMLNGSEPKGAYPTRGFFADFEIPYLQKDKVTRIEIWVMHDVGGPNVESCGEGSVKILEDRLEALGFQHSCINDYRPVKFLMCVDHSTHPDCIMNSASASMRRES
Experimental: Isolated ISCs or Paneth cells were centrifuged for 5 minutes at 250 g and then resuspended in the appropriate volume of crypt culture medium (500-1000 cells/μl) supplemented with 1×N2 (Invitrogen), 1×B27 (Invitrogen), 100 ng/ml Wnt-3A (R&D), and with additional 500 ng/ml R-Spondin to yield 1 μg/ml final concentration. ISCs were then seeded into matrigel (BD Bioscience 356231 growth factor reduced) containing 1 μM Jagged (Ana-Spec) up to 5,000-10,000 cells/30-50 μl. 30 μl drops of 65% matrigel were plated onto a flat bottom 48-well plate (Corning 3548) and then Paneth cells were added at the same cell count to the top of the matrigel drop. Alternatively, ISCs and Paneth cells were mixed after sorting in a 1:1 ratio, centrifuged, and then seeded into matrigel. The matrigel drops with ISCs and Paneth cells were allowed to solidify for 20 to 30 minutes in a 37° C. incubator. […] Organoid bodies were quantitated on days 3, 7, and 9 days of culture, unless otherwise specified. In subcloning experiments, either individual or cultures of organoids were manually disrupted as indicated in the text on day 7-9 by rigorous tituration and replated into fresh matrigel; these secondary organoid bodies were quantitated on day 18 after initiation of the primary cultures. […]

OCCN(CCO)c1nc(N2CCCCC2)c2nc(N(CCO)CCO)nc(N3CCCCC3)c2n1 [Dipyridamole]
organoid forming capacity of AL and CR-derived crypts [1]: reduced the organoid forming capacity of AL and CR-derived crypts to a similar level
organoid forming capacity of AL and CR-derived crypts ([1]; listed as dipyridamole): reduced the clonogenicity of CR and AL-derived crypts to same level

insulin: Regular insulin (Lilly) administered at 0.75 U/kg to fasted mice
P-S6 in sorted Paneth cells from fasted mice ([2]; 20 minutes after injection, FIG. 2b): induced
mTORC1 activity (P-S6) in Paneth cells ([2]; fasted mice, insulin 0.75 U/kg, FIG. 2a): activates mTORC1 in Paneth cells

N=c1c2ncn3c2ncn1[C@@H]1O[C@H](COP(=O)(O)OP(=O)(O)OC[C@H]2O[C@@H]3[C@H](O)[C@@H]2O)[C@@H](O)[C@H]1O [cADPR, cyclic ADP ribose]
rescue of function of Bst-1 knock-down CR crypts [3]: sufficient to rescue the function of these crypts
organoid forming potential (clonogenicity and size) of AL crypts ([1]; 50 μM added to culture media, FIG. 4e): significantly improved the clonogenicity and size of AL-derived organoid bodies; also recorded: increased the organoid forming potential of AL crypts to an extent similar to those of CR crypts
